# Results taken from ChEMBL document CHEMBL3244099, “Various 5-substituted and 2,5-disubstituted 1,3-dioxanes, a new class of analgesic agents” (1977).
# Assays:
# Assay type in all cases: functional
# [1] = species on record: Mus musculus; assay: animal or person
# Description: Analgesic activity in sc dosed mouse assessed as inhibition of acetic acid-induced writhing after 15 to 30 mins
# [2] = tested on: Rattus norvegicus; assay: Analgesic activity in sc dosed rat assessed as dose required for 2 times increase in reaction time after 15 mins by tail jerk test relative to control
# [3] = tested on: Rattus norvegicus; assay: Analgesic activity in sc dosed rat assessed as dose required for 2 times increase in reaction time after 30 mins by tail jerk test relative to control
# [4] = Mus musculus, sc, read-out: ED50
Compound,"ED50 [1, 4]",other results
COc1cccc(C(C2COCOC2)N(C)C)c1.O=C(O)/C=C\C(=O)O (stereo not given),> 50 mg/kg,–
CC1OCOCC1C(c1ccccc1)N(C)C.Cl (stereo not given),32 mg/kg,–
CN(C)C(c1cccc(O)c1)C1COCOC1.Cl (stereo not given),> 50 mg/kg,–
CN(C)C(c1cccnc1)C1COCOC1.Cl (stereo in doubt; (-)-4o),–,ED50 [1]: 3.6 mg/kg; ED [2]: 5.7 mg/kg
CN(C)C(c1ccc(Cl)cc1Cl)C1COCOC1.Cl (stereo not given),> 50 mg/kg,–
CC(C)C1OCC(C(c2ccccc2)N(C)C)CO1.Cl (racemic),> 50 mg/kg,–
C=CCN(C)C(c1ccccc1)C1COCOC1.Cl (stereo not given),> 50 mg/kg,–
CC(=O)Oc1ccc(C(C2COCOC2)N(C)C)cc1.Cl (stereo not given),11 mg/kg,ED [2]: 7.3 mg/kg
CNC(c1ccccc1)C1COCOC1.Cl (stereo not given),21 mg/kg,–
CN(C)C(c1ccccc1)C1(C)COCOC1.Cl (stereo not given),> 50 mg/kg,–
CN(C)C(c1ccncc1)C1COCOC1.O=C(O)/C=C\C(=O)O (stereo not given),> 50 mg/kg,–
CN(C)C(c1cccnc1)C1COCOC1.Cl (racemic),–,ED50 [1]: 6.1 mg/kg; ED [2]: 9.6 mg/kg
CN(C)C(c1ccccn1)C1COCOC1.O=C(O)/C=C\C(=O)O (stereo not given),> 50 mg/kg,–
CN(C)C(c1cccc(Cl)c1)C1COCOC1.O=C(O)/C=C\C(=O)O (stereo not given),> 50 mg/kg,–
CN(C)C(c1ccc(F)cc1)C1COCOC1.Cl (stereo not given),30 mg/kg,–
Cl.Clc1ccc(C(C2COCOC2)N2CCCCC2)cc1 (stereo not given),33 mg/kg,–
COc1ccc(C(C2COCOC2)N(C)C)cc1.Cl (stereo not given),> 50 mg/kg,–
Cl.c1ccc(C(C2COCOC2)N2CCOCC2)cc1 (stereo not given),> 50 mg/kg,–
Cc1cccc(C(C2COCOC2)N(C)C)c1.O=C(O)/C=C\C(=O)O (stereo not given),> 50 mg/kg,–
CN1CC[C@]23c4c5ccc(O)c4O[C@H]2[C@@H](O)C=C[C@H]3[C@H]1C5.CN1CC[C@]23c4c5ccc(O)c4O[C@H]2[C@@H](O)C=C[C@H]3[C@H]1C5.O=S(=O)(O)O,0.97 mg/kg,–
CN(C)C(c1ccccc1)C1COCOC1.Cl (stereo in doubt; (-)-4a),–,ED50 [1]: 6.2 mg/kg; ED [2]: 2.4 mg/kg

Compound,"ED50 [1, 4]",other results
CCC1OCC(C(c2ccccc2)N(C)C)CO1 (racemic),19 mg/kg,–
CN(C)C(c1cccnc1)C1COCOC1.Cl (stereo in doubt; (+)-4o),–,ED50 [1]: >50 mg/kg; ED [2]: >80 mg/kg
CN(C)C(c1ccccc1)C1COCOC1.Cl (racemic),–,ED50 [1]: 14 mg/kg; ED [2]: 4 mg/kg
Cc1ccc(C(C2COCOC2)N(C)C)cc1.O=C(O)/C=C\C(=O)O (stereo not given),20 mg/kg,ED [2]: 7.9 mg/kg
CCOC(=O)C1(c2ccccc2)CCN(C)CC1.Cl [MEPERIDINE HYDROCHLORIDE],2.9 mg/kg,ED [2]: 1.9 mg/kg
Cl.c1ccc(C(C2COCOC2)N2CCCC2)cc1 (stereo not given),> 50 mg/kg,–
CN(C)C(c1ccccc1Cl)C1COCOC1.Cl (stereo not given),48 mg/kg,–
CCN(CC)C(c1ccccc1)C1COCOC1.[O-][Cl+3]([O-])([O-])O (stereo not given),> 50 mg/kg,–
CN(C)C(c1ccc(O)cc1)C1COCOC1.Cl (stereo not given),13 mg/kg,ED [2]: 12 mg/kg
CC1OCC(C(c2ccccc2)N(C)C)CO1 (racemic),3.9 mg/kg,ED [2]: 6.3 mg/kg
Cc1ccccc1C(C1COCOC1)N(C)C.Cl (stereo not given),39 mg/kg,–
CN(C)C(c1ccccc1)C1COC(C2CCCCC2)OC1.Cl (racemic),> 50 mg/kg,–
CN(C)C(c1ccccc1)C1COC(C2CCCC2)OC1 (racemic),45 mg/kg,–
Cc1ccc(C(C2COC(C)OC2)N(C)C)cc1.Cl (racemic),2.9 mg/kg,ED [2]: 7.9 mg/kg
CN(C)C(c1ccccc1)C1COCOC1.Cl (stereo in doubt; (+)-4a),–,ED50 [1]: >50 mg/kg; ED [2]: 69 mg/kg
CN(C)C(c1cccc(OCc2ccccc2)c1)C1COCOC1.Cl (stereo not given),> 50 mg/kg,–
Cl.NC(c1ccccc1)C1COCOC1 (stereo not given),> 50 mg/kg,–
CN(C)C(c1ccc(OCc2ccccc2)cc1)C1COCOC1.Cl (stereo not given),> 50 mg/kg,–
COc1ccc2c3c1O[C@H]1[C@@H](O)C=C[C@H]4[C@@H](C2)N(C)CC[C@@]341.O=S(=O)(O)O,6.7 mg/kg,ED [3]: 4.2 mg/kg
CN(C)C(c1ccc(Cl)cc1)C1COCOC1.Cl (stereo not given),32 mg/kg,–
CCC1(c2ccccc2)OCC(C(c2ccccc2)N(C)C)CO1.O=C(O)/C=C\C(=O)O (racemic),> 50 mg/kg,–
